Assay results: patent US20140228715A1, “Method and Apparatus for Delivering a Substance” (The General Hospital Corporation, priority 2011, published 2014)

Assay: Franz diffusion cell permeability of GI tissue exposed to ultrasound, scintigraphy of tissue and receiver chamber
Settings: 1-MHz, 1.4 W/cm^2; 5 min ultrasound + 55 min passive diffusion vs 30 min + 30 min

Substance: inulin
- transport into or across the tissue, effect of irradiation profile: the longer irradiation time was more effective
